Drawing on ChEMBL document CHEMBL1132949, “Conceptually new 20-epi-22-oxa sulfone analogues of the hormone 1alpha,25-dihydroxyvitamin D(3): synthesis and biological evaluation” (2000), this text covers EC50 and Binding affinity for 3 compounds.

pEC50: −log10 of the molar value.

Assay [1] can be described thus: In vitro vitamin D receptor (VDR)-mediated transcriptional potency in rat osteosarcoma ROS 17/2.8 cells. The note with it: read-out: ED50 (the source's name). It is filed as functional.
Assay [2] has as its target T1, Vitamin D3 receptor (Homo sapiens) (UniProt P11473).
T1 sequence (whole entry): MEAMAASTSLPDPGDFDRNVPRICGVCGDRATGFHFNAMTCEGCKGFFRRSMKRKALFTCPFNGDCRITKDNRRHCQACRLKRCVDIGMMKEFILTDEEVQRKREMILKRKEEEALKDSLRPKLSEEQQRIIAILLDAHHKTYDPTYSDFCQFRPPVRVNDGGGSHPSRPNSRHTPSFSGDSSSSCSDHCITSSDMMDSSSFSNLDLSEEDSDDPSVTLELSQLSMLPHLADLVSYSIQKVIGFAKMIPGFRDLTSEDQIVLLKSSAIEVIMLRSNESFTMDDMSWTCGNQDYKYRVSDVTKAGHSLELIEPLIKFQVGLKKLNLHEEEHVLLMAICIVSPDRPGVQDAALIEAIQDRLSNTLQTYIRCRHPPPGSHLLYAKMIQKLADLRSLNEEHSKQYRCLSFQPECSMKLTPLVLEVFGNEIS
In words: Binding affinity to Vitamin D3 receptor relative to 1,25D3.

The test system of a further assay is MCF7. In words: In vitro activity on human breast adenocarcinoma cell line MCF-7 proliferation. It is filed as functional. The note with it: read-out: ED50 (the source's name).
A further assay relates to PBMC. In words: In vitro inhibition of phytohemagglutininin-induced stimulation of human peripheral blood mononuclear cells proliferation. It is filed as functional. To be noted: read-out: ED50 (the source's name).

In the case of `C=C1/C(=C\C=C2/CCC[C@]3(C)[C@@H]([C@@H](C)OCCCS(=O)(=O)C(C)(C)C)CC[C@@H]23)C[C@@H](O)C[C@@H]1O`, the pEC50 in assay [1] was less than 7.00. Further, the Binding affinity in assay [2] came to 0.4%.

`C=C1/C(=C\C=C2/CCC[C@]3(C)[C@@H]([C@@H](C)OCCCS(=O)(=O)C(C)(C)C)CC[C@@H]23)C[C@H](O)C[C@H]1O`: the pEC50 is 8.80 in assay [1], 8.02 in the assay on MCF7 and 8.08 with PBMC. The compound also came in with a Binding affinity in assay [2] of 26%.

For `C=C1/C(=C\C=C2/CCC[C@]3(C)[C@@H]([C@@H](C)OCCCC(O)(CC)CC)CC[C@@H]23)C[C@@H](O)C[C@@H]1O` [LEXACALCITOL], in the assay on MCF7, the pEC50 is 9.57.
